≈ marks a conversion by molar mass, not a printed value. Entries after “also recorded” stand apart in the source; their conditions may differ.
What was measured:
[1] = system: Acinetobacter baumannii MDR; test: agar spot / disk diffusion plate method; format: cell-based; conditions: spot 10 μl, inoculum 10^8 CFU/ml, (Io) and (Ir) 100 mM, average of three points
Description: (§1) The antimicrobial activity of the substances (Ii), (Il), (Im), (In), (Io), (Ip), (Iq), (Ir), (Is) was evaluated towards 11 clinically isolated Gram-negative and Gram-positive bacterial strains, mostly multi-antibiotic resistant (MDR), and towards two types of yeast of the genus Candida.
(§2) A plate method was used (agar spot method or disk diffusion assay—spot quantity 10 μl, bacterial inoculum 10^8 CFU/ml and DMSO negative control): the (Io) and (Ir) concentration used was 100 mM. The antimicrobial activity was evaluated by measuring the diameter of the microbial growth inhibition halo expressed in millimetres, the reported values being the average of three experimental points.

Candida albicans = test: agar spot / disk diffusion plate method; format: cell-based; conditions: spot 10 μl, inoculum 10^8 CFU/ml, (Io) and (Ir) 100 mM, average of three points
Description: as §1, §2

Candida parapsilosis = test: agar spot / disk diffusion plate method; format: cell-based; conditions: spot 10 μl, inoculum 10^8 CFU/ml, (Io) and (Ir) 100 mM, average of three points
Description: as §1, §2

[2] = system: Enterococcus faecalis MDR; test: agar spot / disk diffusion plate method; format: cell-based; conditions: spot 10 μl, inoculum 10^8 CFU/ml, (Io) and (Ir) 100 mM, average of three points
Description: as §1, §2

Enterococcus faecium MDR = test: agar spot / disk diffusion plate method; format: cell-based; conditions: spot 10 μl, inoculum 10^8 CFU/ml, (Io) and (Ir) 100 mM, average of three points
Description: as §1, §2

Escherichia coli = test: agar spot / disk diffusion plate method; format: cell-based; conditions: spot 10 μl, inoculum 10^8 CFU/ml, (Io) and (Ir) 100 mM, average of three points
Description: as §1, §2

Klebsiella oxytoca = test: agar spot / disk diffusion plate method; format: cell-based; conditions: spot 10 μl, inoculum 10^8 CFU/ml, (Io) and (Ir) 100 mM, average of three points
Description: as §1, §2

Klebsiella pneumonite = test: agar spot / disk diffusion plate method; format: cell-based; conditions: spot 10 μl, inoculum 10^8 CFU/ml, (Io) and (Ir) 100 mM, average of three points
Description: as §1, §2

[3] = system: Pseudomonas aeruginosa MDR; test: agar spot / disk diffusion plate method; format: cell-based; conditions: spot 10 μl, inoculum 10^8 CFU/ml, (Io) and (Ir) 100 mM, average of three points
Description: as §1, §2

Salmonella spp. = test: agar spot / disk diffusion plate method; format: cell-based; conditions: spot 10 μl, inoculum 10^8 CFU/ml, (Io) and (Ir) 100 mM, average of three points
Description: as §1, §2

Serratia marcescens = test: agar spot / disk diffusion plate method; format: cell-based; conditions: spot 10 μl, inoculum 10^8 CFU/ml, (Io) and (Ir) 100 mM, average of three points
Description: as §1, §2

[4] = system: Staphylococcus aureus MRSA; test: agar spot / disk diffusion plate method; format: cell-based; conditions: spot 10 μl, inoculum 10^8 CFU/ml, (Io) and (Ir) 100 mM, average of three points
Description: as §1, §2

[5] = system: Staphylococcus haemolyticus MDR; test: agar spot / disk diffusion plate method; format: cell-based; conditions: spot 10 μl, inoculum 10^8 CFU/ml, (Io) and (Ir) 100 mM, average of three points
Description: as §1, §2

[6] = system: methicillin-resistant Staphylococcus aureus strain (MRSA); test: MIC by microdilutions in broth; format: cell-based
Description: The minimum inhibitory concentration (MIC) of the substances (Io) and (Ir) towards the methicillin-resistant Staphylococcus aureus strain (MRSA) was then evaluated by the method of microdilutions in broth: it should be noted that Staphylococcus aureus (MRSA) is one of the main multi-resistant bacteria causing serious problems in hospitals. The measured MICs were 6.25 mmol/l and 1.56 mmol/l for (Io) and (Ir) respectively.

[7] = system: 11 clinically isolated Gram-negative and Gram-positive bacterial strains, mostly MDR, and two types of yeast of the genus Candida; test: antimicrobial activity towards clinical isolates and yeasts (overall); format: cell-based; conditions: pathogens resistant to β-lactam antibiotics or multi-drug resistant, and yeasts
Description: as §1, §2

[8] = compared with taurine and hypotaurine; cited from earlier work
[9] = in vivo biological studies, cited from earlier work

| SMILES | diameter of the microbial growth inhibition halo [1] [millimetres] | diameter of the microbial growth inhibition halo (Candida albicans) [millimetres] | diameter of the microbial growth inhibition halo (Candida parapsilosis) [millimetres] | diameter of the microbial growth inhibition halo (Escherichia coli) [millimetres] | diameter of the microbial growth inhibition halo [3] [millimetres] | diameter of the microbial growth inhibition halo (Salmonella spp.) [millimetres] | diameter of the microbial growth inhibition halo [4] [millimetres] | diameter of the microbial growth inhibition halo [5] [millimetres] | antibiotic activity (in words) [7] | other results |
| --- | --- | --- | --- | --- | --- | --- | --- | --- | --- | --- |
| CC(C)=CCN1CCSC2=C1C(=O)N1CCSCC21 (stereo not drawn) [Io] | 11 | 10 | 8 | 12 | 11 | 10 | 11.4 | 13 | have shown antibiotic activity | diameter of the microbial growth inhibition halo [2]: 9 millimetres; diameter of the microbial growth inhibition halo (Enterococcus faecium MDR): 8 millimetres; diameter of the microbial growth inhibition halo (Klebsiella oxytoca): 8.6 millimetres; diameter of the microbial growth inhibition halo (Klebsiella pneumonite): 10 millimetres; diameter of the microbial growth inhibition halo (Serratia marcescens): 7 millimetres; minimum inhibitory concentration (MIC) [6]: 6.25 mmol/L (≈ 1850 µg/mL) |
| CN1CCSC2=C1C(=O)N1CCSCC21 (stereo not drawn) [Ii] | – | – | – | – | – | – | – | – | have shown antibiotic activity | – |
| O=C1C2=C(SCCN2Cc2ccccc2)C2CSCCN12 (stereo not drawn) [Ip] | – | – | – | – | – | – | – | – | have shown antibiotic activity | – |
| O=C1C2=C(SCCN2CCc2ccccc2)C2CSCCN12 (stereo not drawn) [Iq] | – | – | – | – | – | – | – | – | have shown antibiotic activity | – |
| O=C1C2=C(SCCN2)C2CSCCN12 (stereo not drawn) [Ia, 3,4,7,8,10,10a-hexahydro-2H,5H-pyrrolo[2,1-c:3,4-b′]bis[1,4]thiazin-5-one, reference compound] | 4 | 6 | 5 | <2 | <2 | 3 | 4 | <2 | – | antioxidant activity (in words) [8]: strong antioxidant activity; antioxidant properties in vivo (in words) [9]: considerable antioxidant properties; toxicity in vivo (in words) ([9]; high doses): total non-toxicity even at high doses |
| CC(C)N1CCSC2=C1C(=O)N1CCSCC21 (stereo not drawn) [In] | – | – | – | – | – | – | – | – | have shown antibiotic activity | – |
| CCN1CCSC2=C1C(=O)N1CCSCC21 (stereo not drawn) [Il] | – | – | – | – | – | – | – | – | have shown antibiotic activity | – |
| CC(C)=CCC/C(C)=C/CN1CCSC2=C1C(=O)N1CCSCC21 (stereo not drawn) [Ir] | 13 | 13 | 9.8 | 12 | 12 | 11 | 18.6 | 15 | have shown antibiotic activity; also recorded: best activity characteristics for the widest spectrum; also recorded: excellent wide spectrum antibiotic activity | diameter of the microbial growth inhibition halo [2]: 13.7 millimetres; diameter of the microbial growth inhibition halo (Enterococcus faecium MDR): 14.3 millimetres; diameter of the microbial growth inhibition halo (Klebsiella oxytoca): 9.8 millimetres; diameter of the microbial growth inhibition halo (Klebsiella pneumonite): 11.5 millimetres; diameter of the microbial growth inhibition halo (Serratia marcescens): 11 millimetres; minimum inhibitory concentration (MIC) [6]: 1.56 mmol/L (≈ 569 µg/mL) |
| O=C1C2=C(SCCN2c2ccc(-c3ccccc3)cc2)C2CSCCN12 (stereo not drawn) [Is] | – | – | – | – | – | – | – | – | have shown antibiotic activity | – |
| CCCN1CCSC2=C1C(=O)N1CCSCC21 (stereo not drawn) [Im] | – | – | – | – | – | – | – | – | have shown antibiotic activity | – |

— patent publication US20090192308A1, “1,5-DIHYDRO-2H-PYRROL-2-ONE TRICYCLIC DERIVATIVES HAVING ANTI-INFECTIVE ACTIVITY” (CPC BIOTECH S. r.l., priority 2008, published 2009)
